Results reported in ChEMBL document CHEMBL4831514, “Novel betulin dicarboxylic acid ester derivatives as potent antiviral agents: Design, synthesis, biological evaluation, structure-activity relationship and in-silico study” (Eur J Med Chem, 2021).

Assays:
Influenza A virus [1] = assay: (§1) Antiviral activity against Influenza A virus H1N1 (A/PR/8/34) infected in MDCK cells assessed as reduction in virus titer treated 1 hr post viral infection followed by replacement with fresh medium with compounds and measured after 72 hrs by MTT assay; format: functional, organism-based; conditions: H1N1 A/PR/8/34, MDCK
[2] = as §1, with “Selectivity index, ratio of CC50 for cytotoxicity against dog MDCK cells to EC50 for antiviral” for “Antiviral”; format: toxicity, cell-based; conditions: read-out: Selectivity Index
Influenza A virus [3] = assay: as §1, with “Potency index, ratio of oseltamivir EC50 to test compound EC50 for antiviral” for “Antiviral”; format: functional

Row | Structure (SMILES) | EC50 (Influenza A virus [1]) | selectivity ratio at 72 h [2] | Ratio EC50 (Influenza A virus [3])
1 | C=C(C)[C@@H]1CC[C@]2(COC(=O)CSCC(=O)O)CC[C@]3(C)[C@H](CC[C@@H]4[C@@]5(C)CC[C@H](O)C(C)(C)[C@@H]5CC[C@]43C)[C@@H]12 | 21.1 µM | 2 | 3
2 | CCOC(=O)C1=C[C@@H](OC(CC)CC)[C@H](NC(C)=O)[C@@H](N)C1 [OSELTAMIVIR] | 80.1 µM | 98.2 | 
3 | C#CC1(NC(=O)/C(C)=C/C(=O)OC[C@]23CC[C@@H](C(=C)C)[C@@H]2[C@H]2CC[C@@H]4[C@@]5(C)CC[C@H](O)C(C)(C)[C@@H]5CC[C@@]4(C)[C@]2(C)CC3)CCCCC1 | 27.2 µM | 2 | 3
